According to article PMC7673538 (PLoS Biology, 2020):
“And” between values parts separate entries of the source, which are not always exact repeats. Equal entries are not always repeated. Where two headings read alike, the source gives them in different places.

Columns and labels:
HRV-B14 = assay: microbe, parasite or virus in culture; assay type: cell-based, human rhinovirus
CV-A24 = assay: microbe, parasite or virus in culture; assay type: cell-based, coxsackievirus A24
EV-D68 = assay: microbe, parasite or virus in culture; assay type: cell-based, enterovirus D68; settings: for EC50: Enterovirus D
CV-B3 = assay: microbe, parasite or virus in culture; assay type: cell-based, coxsackievirus B3; settings: Enterovirus B
[1] = system: all representative viruses; assay type: cell-based
[2] = Human rhinovirus sp., HRVB14, HeLa R19, read-out: EC50 Exp1
[3] = Human rhinovirus sp., HRVB14, HeLa R19, read-out: EC50 Exp2
[4] = Human rhinovirus sp., HRVB14, HeLa R19, read-out: EC50 HRV-B14
[5] = Enterovirus C, CVA24, HeLa R19, read-out: EC50 CV-A24
[6] = Enterovirus C, CVA24, HeLa R19, read-out: EC50 CV-A24 strain Joseph
[7] = Enterovirus C, CVA24, HeLa R19, read-out: EC50 Exp1
[8] = Enterovirus C, CVA24, HeLa R19, read-out: EC50 Exp2
[9] = EVD68, HeLa R19, […], read-out: EC50 Exp1
[10] = EVD68, HeLa R19, read-out: EC50 EV-D68
[11] = EVD68, HeLa R19, read-out: EC50 EV-D68 strain 4310900947
[12] = EVD68, HeLa R19, read-out: EC50 EV-D68 strain 4310901348
[13] = EVD68, HeLa R19, read-out: EC50 EV-D68 strain 4310902042
[14] = EVD68, HeLa R19, read-out: EC50 EV-D68 strain 4310902284
[15] = EVD68, HeLa R19, read-out: EC50 EV-D68 strain 4311000742
[16] = EVD68 / genotype 2c, HeLa R19, read-out: EC50 EV-D68 WT
[17] = CVB3, HAP1, read-out: EC50 Hap1 Average
[18] = CVB3, HAP1, read-out: Exp 1 EC50 Hap1
[19] = CVB3, HAP1, read-out: Exp 2 EC50 Hap1

O=C(c1ccco1)N(Cc1ccc(F)cc1)c1ccccc1 [Compound 19b, N-(4-Fluorobenzyl)-N-phenylfuran-2-carboxamide]
EC50 (HRV-B14; [2]): 11.1 µM
EC50 (HRV-B14; [3]): 9.9 µM
EC50 (HRV-B14; [4]): 10.5 ± 0.61 µM
EC50 (CV-A24; [5]): 6.39 ± 0.74 µM
EC50 (CV-A24; [6]): 4.99 ± 0.61 µM
EC50 (CV-A24; [7]): 5.65 µM
EC50 (CV-A24; [8]): 7.12 µM
EC50 (CV-A24; read-out: EC50 Exp1): 4.38 µM
EC50 (CV-A24; read-out: EC50 Exp2): 5.6 µM
cross-resistance of 19d-resistant EV-D68 virus pools (in words) (EV-D68): cross-resistance
EC50 (EV-D68; [9]): 1.87 µM
EC50 (EV-D68; EVD68, HeLa R19, read-out: EC50 Average): 0.83 µM
EC50 (EV-D68; [10]): 0.5 ± 0.26 µM
EC50 (EV-D68; [11]): 1.85 ± 0.18 µM
EC50 (EV-D68; [12]): 1.71 ± 0.68 µM
EC50 (EV-D68; [13]): 0.91 ± 0.92 µM
EC50 (EV-D68; [14]): 1.29 ± 0.21 µM
EC50 (EV-D68; [15]): 1.31 ± 0.9 µM
EC50 (EV-D68; EVD68, HeLa R19, read-out: EC50 EV-D68 strain Fermon): 0.58 ± 0.1 µM
EC50 (EV-D68; [16]): 0.83 ± 0.09 µM
EC50 (CV-B3; [17]): 0.35 µM
EC50 (CV-B3; [18]): 0.15 µM
EC50 (CV-B3; [19]): 0.55 µM

O=C(c1ccco1)N(Cc1ccc(C(F)(F)F)cc1)c1ccccc1 [Compound 19d, N-phenyl-N-(4-(trifluoromethyl)benzyl)furan-2-carboxamide]
EC50 (HRV-B14; [2]): 4.76 µM
EC50 (HRV-B14; [3]): 3.61 µM
EC50 (HRV-B14; [4]): 4.19 ± 0.58 µM
cytotoxic effect in parallel to single-cycle assay (in words) (HeLa R19 cells): none of them showed any cytotoxic effect
Cytotoxicity values, % compared to DMSO (Figure 2B) (HeLa R19 cells; compound concentration 0.01 µM): 101.341%
inhibition in single-cycle viral replication assay (in words) [1]: inhibited all representative viruses
EC50 (CV-A24; [5]): 19.5 ± 0.55 µM
EC50 (CV-A24; [6]): 18.7 ± 0.67 µM
EC50 (CV-A24; [7]): 19 µM
EC50 (CV-A24; [8]): 20.1 µM
EC50 (CV-A24; read-out: EC50 Exp1): 18 µM
EC50 (CV-A24; read-out: EC50 Exp2): 19.3 µM
resistance of reverse-engineered EV-D68 2C T196S (in words) (EV-D68): provided 19d resistance, although resistance was rather moderate
resistance of reverse-engineered EV-D68 2C V96M (in words) (EV-D68): provided 19d resistance, although resistance was rather moderate
multicycle replication assay read-out, EV-D68 Fermon (EV-D68; 0.2344 µM): 10 and 12
multicycle replication assay read-out, EV-D68 Fermon (EV-D68; 0.4688 µM): 22 and 14 and 23
multicycle replication assay read-out, EV-D68 Fermon (EV-D68; 0.9375 µM): 10 and 16.5525
multicycle replication assay read-out, EV-D68 Fermon (EV-D68; 1.875 µM): 102.405 and 111.906 and 97.379
multicycle replication assay read-out, EV-D68 Fermon (EV-D68; 3.75 µM): 102.405 and 111.906 and 97.379
multicycle replication assay read-out, EV-D68 Fermon (EV-D68; 7.5 µM): 109.948 and 106.039 and 109.278
multicycle replication assay read-out, EV-D68 Fermon (EV-D68; 15 µM): 109.948 and 106.039 and 109.278
multicycle replication assay read-out, EV-D68 Fermon (EV-D68; 30 µM): 109.948 and 106.039 and 109.278
EC50 (EV-D68; [9]): 3.84 µM
EC50 (EV-D68; [10]): 1.37 ± 0.02 µM
EC50 (EV-D68; [11]): 4.6 ± 0.37 µM
EC50 (EV-D68; [12]): 3.55 ± 0.43 µM
EC50 (EV-D68; [13]): 3.53 ± 0.41 µM
EC50 (EV-D68; [14]): 1.82 ± 0.57 µM
EC50 (EV-D68; [15]): 3.91 ± 0.13 µM
EC50 (EV-D68; [16]): 1.55 ± 0.17 µM
EC50 (CV-B3; [17]): 0.75 µM
EC50 (CV-B3; [18]): 0.69 µM
EC50 (CV-B3; [19]): 0.8 µM

COc1ccc(N(Cc2ccc(F)cc2)C(=O)c2ccco2)cc1 [Compound 1, N-(4-fluorobenzyl)-N-(4-methoxyphenyl)furan-2-carboxamide]
inhibition of HRV-B14 replication (in words) (HRV-B14): antiviral activity
Figure 7 dose-response raw data, HRV_B14 (triplicate values) (HRV-B14; Concentration 0.0046 µM): 15.2266 and 14.5606
Figure 7 dose-response raw data, HRV_B14 (triplicate values) (HRV-B14; Concentration 0.0137 µM): 15.2266 and 14.5606
Figure 7 dose-response raw data, HRV_B14 (triplicate values) (HRV-B14; Concentration 0.0412 µM): 15.2266 and 14.5606 and 20.943
Figure 7 dose-response raw data, HRV_B14 (triplicate values) (HRV-B14; Concentration 0.3704 µM): 23.8668 and 30.9898 and 27.193
Figure 7 dose-response raw data, HRV_B14 (triplicate values) (HRV-B14; Concentration 1.1111 µM): 29.6577 and 30.8788 and 30.9898
Figure 7 dose-response raw data, HRV_B14 (triplicate values) (HRV-B14; Concentration 3.3333 µM): 15.2266 and 14.5606
Figure 7 dose-response raw data, HRV_B14 (triplicate values) (HRV-B14; Concentration 11.1111 µM): 71.9426 and 62.9417 and 74.4773
Figure 7 dose-response raw data, HRV_B14 (triplicate values) (HRV-B14; Concentration 33.3333 µM): 100.034 and 89.1582 and 86.605
Figure 7 dose-response raw data, HRV_B14 (triplicate values) (HRV-B14; Concentration 100 µM): 104.147 and 89.1582 and 86.605
EC50 (HRV-B14; [2]): 10.8 µM
EC50 (HRV-B14; [3]): 13.9 µM
EC50 (HRV-B14; [4]): 10.8 ± 1.27 µM
EC50 (HRV-B14; Human rhinovirus sp., HRVB14, HeLa R19, read-out: EC50 HRV-B14 Experiement 3): 11.1 µM
EC50 (HRV-B14; Human rhinovirus sp., HRVB14, HeLa R19, read-out: EC50 HRV-B14 Experiment 1): 12.2 µM
EC50 (HRV-B14; Human rhinovirus sp., HRVB14, HeLa R19, read-out: EC50 HRV-B14 Experiment 2): 9.16 µM
EC50 (HRV-B14; read-out: EC50 HRV-B14): 12.4 ± 1.51 µM
EC50 (CV-A24; [5]): > 30 µM
EC50 (CV-A24; Enterovirus C, CVA24, HeLa R19, read-out: EC50 CV-A24 Average): > 30 µM
EC50 (CV-A24; Enterovirus C, CVA24, HeLa R19, read-out: EC50 CV-A24 Experiement 3): > 30 µM
EC50 (CV-A24; Enterovirus C, CVA24, HeLa R19, read-out: EC50 CV-A24 Experiment 1): > 30 µM
EC50 (CV-A24; Enterovirus C, CVA24, HeLa R19, read-out: EC50 CV-A24 Experiment 2): > 30 µM
EC50 (CV-A24; [6]): > 30 µM
inhibition of EV-D68 replication (in words) (EV-D68): antiviral activity
Figure 7 dose-response raw data, EV-D68 (triplicate values) (EV-D68; Concentration 0.001 µM): 8.529 and 8.161 and 15.8928
Figure 7 dose-response raw data, EV-D68 (triplicate values) (EV-D68; Concentration 0.0412 µM): 9.388 and 8.898 and 11.4747
Figure 7 dose-response raw data, EV-D68 (triplicate values) (EV-D68; Concentration 0.1235 µM): 8.529 and 8.161 and 15.8928
Figure 7 dose-response raw data, EV-D68 (triplicate values) (EV-D68; Concentration 0.3704 µM): 8.529 and 8.161 and 15.8928
Figure 7 dose-response raw data, EV-D68 (triplicate values) (EV-D68; Concentration 1.1111 µM): 105.527 and 109.089 and 109.58
Figure 7 dose-response raw data, EV-D68 (triplicate values) (EV-D68; Concentration 3.3333 µM): 104.422 and 100.246 and 109.335
Figure 7 dose-response raw data, EV-D68 (triplicate values) (EV-D68; Concentration 10 µM): 100.368 and 102.702 and 104.422
EC50 (EV-D68; EVD68, HeLa R19, read-out: EC50 EV-D68 Experiement 3): 0.31 µM
EC50 (EV-D68; EVD68, HeLa R19, read-out: EC50 EV-D68 Experiment 1): 0.25 µM
EC50 (EV-D68; EVD68, HeLa R19, read-out: EC50 EV-D68 Experiment 2): 0.39 µM
EC50 (EV-D68; [11]): 3.65 ± 0.34 µM
EC50 (EV-D68; [12]): 4.47 ± 0.13 µM
EC50 (EV-D68; [13]): 4.05 ± 0.65 µM
EC50 (EV-D68; [14]): 2.23 ± 0.12 µM
EC50 (EV-D68; [15]): 3.83 ± 0.4 µM
EC50 (EV-D68; EVD68, HeLa R19, read-out: EC50 Exp2): 1.95 µM
EC50 (CV-B3; [17]): 1.57 µM
EC50 (CV-B3; [18]): 1.49 µM
EC50 (CV-B3; [19]): 1.65 µM
